The values that follow come from US20060135618A1, “Medicine comprising a thiourea for use as depigmenting agent or anti-mutagenic and anti-carcinogenic agent” (priority 2002, published 2006).

In data set [1] the test system is melanin-producing human melanocyte-keratinocyte co-cultures. Nature of the data set: Depigmenting effect: melanin extraction from pigmented epidermis co-cultures. The format is cell-based. To be noted: for inhibition at 2800 µM: read-out: Inhibition % of the melanin in the co-cultures; for Inhibition % of the melanin in the co-cultures: 2.8 mM in culture medium for 21 days. How it is done: The culture media are also supplied by this manufacturer.
Extraction is carried out on a pool of two culture wells, which are homogenized in 0.45 ml of sodium dodecyl sulphate (SDS) at 1% containing 0.05 mM of EDTA and 10 mM of Tris HCl (amino-2-(hydroxymethyl)-2-propanediol-1,3), pH 6.8. Add 20 μl of proteinase K at 5 mg/ml to each homogenate. Digest over night at 45° C. Then add a further 20 μl of proteinase K and continue incubation for 4 hours. Then add 50 μl of 0.5 M solution of sodium carbonate and 10 μl of a 30% solution of hydrogen peroxide. Maintain the specimens at 80° C. for 30 min and then cool them. Extract the specimens with 100 μl of a chloroform-methanol mixture (2:1, v/v). After centrifugation at 10,000 g for 10 min, measure the optical density of the supernatant at 405 nm. The products are compared in Table 1 below (the results are expressed as percentage inhibition of the melanin in the co-cultures): […]

The test system of data set [2] is Salmonella typhimurium TA 104 recN2-4. Nature of the data set: Vitotox test, antimutagenic effect against MMS (methylmethanesulphonate). The class given is cell-based. How it is done: After incubation of the bacteria with a genotoxic product, the recN promoter is derepressed and the lux operon is expressed: emission of light, the said emission being proportional to the genotoxicity of the product. Some products act directly on the production of light or increase the metabolism of the bacteria, creating false positives. […] The same strain is used as cytotoxicity control (false negatives).
• In order to test the antimutagenic effect against genotoxic molecules, a genotoxic molecule, methylmethanesulphonate (MMS), is used, which is compared against the genotoxicity of a mixture of reference mutagenic molecules, 4-nitroquinoline oxide and benzo(a)pyrene. MMS is placed alone or mixed with bis MsoBT at increasing concentrations and the emissions of light are compared. […] The test product is used with or without metabolic activation (fraction S9: microsomal homogenate containing cytochrome P450: […] final). • The kinetics of emission of light, as a function of the genotoxicity and of the cytotoxicity of the product, is measured for 3 hours (measurements every 5 minutes) with a Fluoroskan Ascent FL (bermnoLabsystems). • The products are supplied by the companies Sigma-Aldrich. […]

For data set [3] the test system is unchanged. Description: Vitotox test, antimutagenic effect against UVB. The format is cell-based. To be noted: cultures irradiated for 20 s, 254 nm, without MMS.

For orientation: inhibition means the percentage by which the read-out fell short of the control. Broadly, the melting point is the temperature of the solid-liquid transition.

Consider `CS(=O)(=O)CCCCNC(=S)NCCCCS(C)(=O)=O` [bis MSoBT, 1,3-bis-(5-methanesulphonylbutyl) thiourea], for which the melting point came to 142 °C. For the same compound, the inhibition at 2800 µM in data set [1] (Homo sapiens, 504 h) amounted to 29.6%. Also, in data set [1] (relative to kojic acid), the “necessary concentration for approx. 30% melanin inhibition, times lower than for kojic acid” value worked out at 25 times. For the same compound, in data set [2] (with S9), the “inhibitory concentration 50 of the mutagenic effect of MMS” value is 20 ppm. Moreover, in data set [2] (without S9), the “inhibitory concentration 50 of the mutagenic effect of MMS” value was 17 ppm. Further, the “inhibitory concentration 50 of the mutagenic effect induced by UVB” value in data set [3] amounted to 25 ppm.

As for `C[S+]([O-])CCCCNC(=S)NCCCC[S+](C)[O-]` (stereo not shown) [bis MSiBT, 1,3-bis-(5-methanesulphinylbutyl)-thiourea], the “Inhibition % of the melanin in the co-cultures” value in data set [1] was found to be 7.5%.

For `O=c1cc(CO)occ1O` [Kojic acid, reference compound], testing at 35000 µM in data set [1] (Homo sapiens, 504 h, 35 mM in culture medium for 21 days) gave an inhibition of 32%.

Consider `CNC(=S)NC` [Dimethylthiourea, dimethylthiourea, reference compound], for which the “Inhibition % of the melanin in the co-cultures” value in data set [1] worked out at 36%.

Take `C[S+]([O-])CCCCNC(=S)NCCCCS(C)(=O)=O` (stereo not shown) [MSBMSBT, 1-(5-methanesulphinylbutyl)-3-(5-methanesulphonylbutyl)-thiourea]: the inhibition at 2800 µM in data set [1] (Homo sapiens, 504 h) is 18%.
